Results taken from PubChem BioAssay AID220 (DTP/NCI, 2004).
Values joined by “and” are separate entries in the source; they are usually repeats but may differ in a detail not shown here. Identical values can stand only once. Records with an inconclusive call do not appear.

System: CD8F1 mice, subcutaneous mammary adenocarcinoma, T/C%
Experiment: NCI In Vivo Anticancer Drug Screen. Data for tumor model Mammary Adenocarcinoma CD8F1 (subcutaneous) in CD8F1
Conditions: higher = larger tumour
Outline: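 Compound-treated versus vehicle-treated mice with transplantable tumors; survival or tumor size compared as T/C.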

[1] = endpoint: median tumor weight (est.), dose: 12.5 mg/kg/injection, schedule: Q07DX005 (ip), vehicle: saline
[2] = endpoint: median tumor weight (est.), dose: 25.0 mg/kg/injection, schedule: Q07DX005 (ip), vehicle: saline
[3] = endpoint: median tumor weight (est.), dose: 50.0 mg/kg/injection, schedule: Q07DX005 (ip), vehicle: saline
[4] = endpoint: median tumor weight (est.), dose: 100.0 mg/kg/injection, schedule: Q07DX005 (ip), vehicle: saline
[5] = endpoint: median tumor weight (est.), dose: 200.0 mg/kg/injection, schedule: Q07DX005 (ip), vehicle: saline
[6] = endpoint: median tumor weight (est.), dose: 400.0 mg/kg/injection, schedule: Q07DX005 (ip), vehicle: saline
[7] = endpoint: median tumor weight (est.), dose: 100.0 mg/kg/injection, schedule: Q07DX005 (ip), vehicle: Klucel (hydroxypropylcellulose) (HPC)

ClC(Cl)=C(Cl)Cl was tested, and the T/C (endpoint: median tumor weight change, dose: 62.5 mg/kg/injection, schedule: Q01DX001 (ip), vehicle: other) was 157 % of control and the T/C (endpoint: median tumor weight change, dose: 125.0 mg/kg/injection, schedule: Q01DX001 (ip), vehicle: other) was 191 % of control.

O=C(Nc1cccc(Cl)c1)ON1C(=O)C2C(C1=O)C1(Cl)C(Cl)C(Cl)C2(Cl)C1(Cl)Cl (stereo unspecified) was tested, and the T/C (endpoint: median tumor weight change, dose: 62.5 mg/kg/injection, schedule: Q01DX001 (ip), vehicle: saline with Tween-80) was 112 % of control, the T/C (endpoint: median tumor weight change, dose: 125.0 mg/kg/injection, schedule: Q01DX001 (ip), vehicle: saline with Tween-80) was 112 % of control and the T/C (endpoint: median tumor weight change, dose: 250.0 mg/kg/injection, schedule: Q01DX001 (ip), vehicle: saline with Tween-80) was 95 % of control.

With NC(=O)c1ncn(C2OC(CO)C(O)C2O)n1 (stereo unspecified) the T/C (endpoint: mean tumor weight, dose: 12.5 mg/kg/injection, schedule: Q07DX006 (ip), vehicle: saline) was 120 % of control, the T/C (endpoint: mean tumor weight, dose: 25.0 mg/kg/injection, schedule: Q07DX006 (ip), vehicle: saline) was 288 % of control and the T/C (endpoint: mean tumor weight, dose: 50.0 mg/kg/injection, schedule: Q07DX006 (ip), vehicle: saline) was 60 % of control. The T/C (endpoint: mean tumor weight, dose: 100.0 mg/kg/injection, schedule: Q07DX006 (ip), vehicle: saline) was 35 % of control, the T/C (endpoint: mean tumor weight, dose: 200.0 mg/kg/injection, schedule: Q07DX006 (ip), vehicle: saline) was 41 % of control and the T/C (endpoint: mean tumor weight, dose: 400.0 mg/kg/injection, schedule: Q07DX006 (ip), vehicle: saline) was 27 % of control. For the same compound, the T/C [1] was 118 % of control, the T/C [2] was 165 % of control and the T/C [3] was 97 % of control. For the same compound, the T/C [4] was 102 % of control, the T/C [5] was 46 % of control and the T/C [6] was 48 % of control.

For COC1=CC(=O)N(C(=O)C2CSC(C(CO)NC(=O)c3csc(/C=N/O)n3)=N2)C1 (stereo unspecified), the T/C [7] was 83 % of control, the T/C (endpoint: median tumor weight (est.), dose: 200.0 mg/kg/injection, schedule: Q07DX005 (ip), vehicle: Klucel (hydroxypropylcellulose) (HPC)) was 102 % of control and the T/C (endpoint: median tumor weight (est.), dose: 400.0 mg/kg/injection, schedule: Q07DX005 (ip), vehicle: Klucel (hydroxypropylcellulose) (HPC)) was 100 % of control.

CC1=CC(=Nc2ccc(N(CCCl)CCCl)cc2)C=C(C)C1=O was tested, and the T/C (endpoint: median tumor weight (est.), dose: 6.25 mg/kg/injection, schedule: Q07DX005 (ip), vehicle: Klucel (hydroxypropylcellulose) (HPC)) was 61 % of control and 69 % of control, the T/C (endpoint: median tumor weight (est.), dose: 50.0 mg/kg/injection, schedule: Q07DX005 (ip), vehicle: Klucel (hydroxypropylcellulose) (HPC)) was 32 % of control and 44 % of control and the T/C [7] was 45 % of control.

With COC1C(O)CC(OC2C(C)OC(Oc3cc(O)c4c(O)c5c(cc4c3)C[C@@H]([C@H](OC)C(=O)[C@@H](O)[C@@H](C)O)[C@H](OC3CC(OC4CC(OC6CC(C)(O)C(O)C(C)O6)C(O)C(C)O4)C(O)C(C)O3)C5=O)CC2OC(C)=O)OC1C (stereo partly specified) the T/C (endpoint: median tumor weight (est.), dose: 18.75 mg/kg/injection, schedule: Q07DX005 (ip), vehicle: suspension in saline) was 207 % of control, the T/C (endpoint: median tumor weight (est.), dose: 75.0 mg/kg/injection, schedule: Q07DX005 (ip), vehicle: suspension in saline) was 66 % of control and the T/C (endpoint: median tumor weight (est.), dose: 150.0 mg/kg/injection, schedule: Q07DX005 (ip), vehicle: suspension in saline) was 111 % of control. For the same compound, the T/C (endpoint: median tumor weight (est.), dose: 300.0 mg/kg/injection, schedule: Q07DX005 (ip), vehicle: suspension in saline) was 123 % of control.

For O=c1[nH]c(=O)n(C2CC(O)C(CO)O2)cc1F (stereo unspecified), the T/C (endpoint: mean tumor weight, dose: 25.0 mg/kg/injection, schedule: Q01DX009 (ip), vehicle: saline) was 50 % of control, the T/C (endpoint: mean tumor weight, dose: 50.0 mg/kg/injection, schedule: Q01DX009 (ip), vehicle: saline) was 20 % of control and the T/C (endpoint: mean tumor weight, dose: 100.0 mg/kg/injection, schedule: Q01DX009 (ip), vehicle: saline) was 30 % of control. For the same compound, the T/C (endpoint: mean tumor weight, dose: 125.0 mg/kg/injection, schedule: Q07DX005 (ip), vehicle: saline) was 585 % of control, the T/C (endpoint: mean tumor weight, dose: 125.0 mg/kg/injection, schedule: Q07DX006 (ip), vehicle: saline) was 49 % of control and the T/C (endpoint: mean tumor weight, dose: 250.0 mg/kg/injection, schedule: Q07DX005 (ip), vehicle: saline) was 180 % of control. For the same compound, the T/C (endpoint: mean tumor weight, dose: 250.0 mg/kg/injection, schedule: Q07DX006 (ip), vehicle: saline) was 6 % of control, the T/C (endpoint: mean tumor weight, dose: 500.0 mg/kg/injection, schedule: Q07DX005 (ip), vehicle: saline) was 473 % of control and the T/C [1] was 97 % of control. The T/C [2] was 116 % of control, the T/C [3] was 72 % of control and 81 % of control and the T/C [4] was 62 % of control and 78 % of control. For the same compound, the T/C [5] was 27 % of control and 46 % of control and the T/C [6] was 5 % of control and 11 % of control.
